Assay results published in patent EP0726261A1, “Herbidical 1,2,4 thiadiazoles” (American Cyanamid Company, priority 1995, dated 1996).

Key:
Type in all cases: in vivo
Triticum aestivum [1] = assay: Preemergence herbicidal activity (Example 67); design: herbicide rating, TRZAW: scale not given here; conditions: pre, 800 g/ha; for herbicide rating, TRZAW: rated about 1-3 weeks after treatment
Protocol: (§1) Herbicidal evaluation of compounds of the invention is conducted on the following plant species:
(§2) The soil is a prepared horticultural substrate containing 30% peat, 20% volcanic clay, 30% bark residues and 20% polyamide/styromull in a 1:3 mixture with loamy sand. Test solutions are prepared by dissolving the test compound in acetone containing 0.5% of an alkylphenol/ethylene oxide condensate under the trademark, TRITON® X-155, and diluting with water as needed. The test solutions are applied as a spray to the 3-6 week old seedling plants at dose rates corresponding to 800g/ha in a volume equivalent to 400 L/ha. A pneumatic spraying device employing a Teejet nozzle SS 8002E operating at 3 bar is used for a predetermined time. After spraying, the treated plants are placed on greenhouse benches and cared for in a manner commensurate with conventional greenhouse practice. After 10-21 days, the treated plants are evaluated and rated according to the rating system provided below.
(§3) The soil surface is then sprayed with test solutions as described in the postemergence evaluation hereinabove. After spraying, the treated cups are placed on greenhouse benches and cared for in the manner commensurate with conventional greenhouse practice. About 1-3 weeks after treatment the cups are evaluated and rated according to the rating system provided hereinabove.

Hordeum vulgare [2] = assay: Preemergence herbicidal activity (Example 67); design: herbicide rating, HORVW: scale not given here; conditions: pre, 800 g/ha; for herbicide rating, HORVW: rated about 1-3 weeks after treatment
Protocol: as §1, §2, §3

Alopecurus myosuroides [3] = assay: Preemergence herbicidal activity (Example 67); design: herbicide rating, ALOMY: scale not given here; conditions: pre, 800 g/ha; for herbicide rating, ALOMY: rated about 1-3 weeks after treatment
Protocol: as §1, §2, §3

Setaria viridis [4] = assay: Preemergence herbicidal activity (Example 67); design: herbicide rating, SETVI: scale not given here; conditions: pre, 800 g/ha; for herbicide rating, SETVI: rated about 1-3 weeks after treatment
Protocol: as §1, §2, §3

Abutilon theophrasti [5] = assay: Preemergence herbicidal activity (Example 67); conditions: pre, 800 g/ha; for herbicide rating, ABUTH: rated about 1-3 weeks after treatment
Protocol: as §1, §2, §3

Amaranthus retroflexus [6] = assay: Preemergence herbicidal activity (Example 67); conditions: pre, 800 g/ha; for herbicide rating, AMARE: rated about 1-3 weeks after treatment
Protocol: as §1, §2, §3

Chenopodium album [7] = assay: Preemergence herbicidal activity (Example 67); conditions: pre, 800 g/ha; for herbicide rating, CHEAL: rated about 1-3 weeks after treatment
Protocol: as §1, §2, §3

Galium aparine [8] = assay: Preemergence herbicidal activity (Example 67); conditions: pre, 800 g/ha; for herbicide rating, GALAP: rated about 1-3 weeks after treatment
Protocol: as §1, §2, §3

Helianthus annuus [9] = assay: Preemergence herbicidal activity (Example 67); conditions: pre, 800 g/ha; for herbicide rating, HELAN: rated about 1-3 weeks after treatment
Protocol: as §1, §2, §3

Ipomoea hederacea [10] = assay: Preemergence herbicidal activity (Example 67); conditions: pre, 800 g/ha; for herbicide rating, IPOHE: rated about 1-3 weeks after treatment
Protocol: as §1, §2, §3

Veronica persica [11] = assay: Preemergence herbicidal activity (Example 67); conditions: pre, 800 g/ha; for herbicide rating, VERPE: rated about 1-3 weeks after treatment
Protocol: as §1, §2, §3

Zea mays [12] = assay: Preemergence herbicidal activity (Example 67); conditions: pre, 800 g/ha; for herbicide rating, ZEAMX: rated about 1-3 weeks after treatment
Protocol: as §1, §2, §3

Abutilon theophrasti [13] = assay: Postemergence herbicidal activity (Example 67); conditions: pos, 800 g/ha; for herbicide rating, ABUTH: rated after 10-21 days
Protocol: as §1, §2

Alopecurus myosuroides [14] = assay: Postemergence herbicidal activity (Example 67); conditions: pos, 800 g/ha; for herbicide rating, ALOMY: rated after 10-21 days
Protocol: as §1, §2

Amaranthus retroflexus [15] = assay: Postemergence herbicidal activity (Example 67); conditions: pos, 800 g/ha; for herbicide rating, AMARE: rated after 10-21 days
Protocol: as §1, §2

Chenopodium album [16] = assay: Postemergence herbicidal activity (Example 67); conditions: pos, 800 g/ha; for herbicide rating, CHEAL: rated after 10-21 days
Protocol: as §1, §2

Galium aparine [17] = assay: Postemergence herbicidal activity (Example 67); conditions: pos, 800 g/ha; for herbicide rating, GALAP: rated after 10-21 days
Protocol: as §1, §2

Helianthus annuus [18] = assay: Postemergence herbicidal activity (Example 67); conditions: pos, 800 g/ha; for herbicide rating, HELAN: rated after 10-21 days
Protocol: as §1, §2

Hordeum vulgare [19] = assay: Postemergence herbicidal activity (Example 67); conditions: pos, 800 g/ha; for herbicide rating, HORVW: rated after 10-21 days
Protocol: as §1, §2

Ipomoea hederacea [20] = assay: Postemergence herbicidal activity (Example 67); conditions: pos, 800 g/ha; for herbicide rating, IPOHE: rated after 10-21 days
Protocol: as §1, §2

Setaria viridis [21] = assay: Postemergence herbicidal activity (Example 67); conditions: pos, 800 g/ha; for herbicide rating, SETVI: rated after 10-21 days
Protocol: as §1, §2

Triticum aestivum [22] = assay: Postemergence herbicidal activity (Example 67); conditions: pos, 800 g/ha; for herbicide rating, TRZAW: rated after 10-21 days
Protocol: as §1, §2

Veronica persica [23] = assay: Postemergence herbicidal activity (Example 67); conditions: pos, 800 g/ha; for herbicide rating, VERPE: rated after 10-21 days
Protocol: as §1, §2

Zea mays [24] = assay: Postemergence herbicidal activity (Example 67); conditions: pos, 800 g/ha; for herbicide rating, ZEAMX: rated after 10-21 days
Protocol: as §1, §2

| Compound | herbicide rating, TRZAW (Triticum aestivum [1]) | herbicide rating, HORVW (Hordeum vulgare [2]) | herbicide rating, ALOMY (Alopecurus myosuroides [3]) | herbicide rating, SETVI (Setaria viridis [4]) | TRZ AW rating (Triticum aestivum [1]) | HOR VW rating (Hordeum vulgare [2]) | SET VI rating (Setaria viridis [4]) | AMA RE rating (Amaranthus retroflexus [6]) | GAL AP rating (Galium aparine [8]) | HEL AN rating (Helianthus annuus [9]) | VER PE rating (Veronica persica [11]) | ZEA MX rating (Zea mays [12]) | AMA RE rating (Amaranthus retroflexus [15]) | GAL AP rating (Galium aparine [17]) | HEL AN rating (Helianthus annuus [18]) | HOR VW rating (Hordeum vulgare [19]) | SET VI rating (Setaria viridis [21]) | TRZ AW rating (Triticum aestivum [22]) | VER PE rating (Veronica persica [23]) | ZEA MX rating (Zea mays [24]) | also measured |
| --- | --- | --- | --- | --- | --- | --- | --- | --- | --- | --- | --- | --- | --- | --- | --- | --- | --- | --- | --- | --- | --- |
| O=C(NCc1cccs1)c1nc(C=Cc2ccccc2)ns1 [Example 28] | 0 | 0 | 0 | 0 | – | – | – | – | – | – | – | – | – | – | – | – | – | – | – | – | herbicide rating, ABUTH (Abutilon theophrasti [5]): 0; herbicide rating, AMARE (Amaranthus retroflexus [6]): 0; herbicide rating, CHEAL (Chenopodium album [7]): 0; herbicide rating, GALAP (Galium aparine [8]): 0; herbicide rating, HELAN (Helianthus annuus [9]): 0; herbicide rating, IPOHE (Ipomoea hederacea [10]): 0; herbicide rating, VERPE (Veronica persica [11]): 0; herbicide rating, ZEAMX (Zea mays [12]): 0; herbicide rating, ABUTH (Abutilon theophrasti [13]): 1 (1-5%); herbicide rating, ALOMY (Alopecurus myosuroides [14]): 1 (1-5%); herbicide rating, AMARE (Amaranthus retroflexus [15]): 0; herbicide rating, CHEAL (Chenopodium album [16]): 2 (6-15%); herbicide rating, GALAP (Galium aparine [17]): 0; herbicide rating, HELAN (Helianthus annuus [18]): 0; herbicide rating, HORVW (Hordeum vulgare [19]): 0; herbicide rating, IPOHE (Ipomoea hederacea [20]): 0; herbicide rating, SETVI (Setaria viridis [21]): 3 (16-29%); herbicide rating, TRZAW (Triticum aestivum [22]): 0; herbicide rating, VERPE (Veronica persica [23]): 2 (6-15%); herbicide rating, ZEAMX (Zea mays [24]): 0 |
| COc1ccc(-c2nsc(C(=O)NC(C)c3ccc(C)s3)n2)cc1 (racemic) [Example 37] | 0 | 0 | 0 | 0 | – | – | – | – | – | – | – | – | – | – | – | – | – | – | – | – | herbicide rating, ABUTH (Abutilon theophrasti [5]): 0; herbicide rating, AMARE (Amaranthus retroflexus [6]): 0; herbicide rating, CHEAL (Chenopodium album [7]): 6 (65-79%); herbicide rating, GALAP (Galium aparine [8]): 0; herbicide rating, HELAN (Helianthus annuus [9]): 0; herbicide rating, IPOHE (Ipomoea hederacea [10]): 0; herbicide rating, VERPE (Veronica persica [11]): 0; herbicide rating, ZEAMX (Zea mays [12]): 0; herbicide rating, ABUTH (Abutilon theophrasti [13]): 0; herbicide rating, ALOMY (Alopecurus myosuroides [14]): 2 (6-15%); herbicide rating, AMARE (Amaranthus retroflexus [15]): 0; herbicide rating, CHEAL (Chenopodium album [16]): 3 (16-29%); herbicide rating, GALAP (Galium aparine [17]): 0; herbicide rating, HELAN (Helianthus annuus [18]): 0; herbicide rating, HORVW (Hordeum vulgare [19]): 2 (6-15%); herbicide rating, IPOHE (Ipomoea hederacea [20]): 1 (1-5%); herbicide rating, SETVI (Setaria viridis [21]): 4 (30-44%); herbicide rating, TRZAW (Triticum aestivum [22]): 3 (16-29%); herbicide rating, VERPE (Veronica persica [23]): 0; herbicide rating, ZEAMX (Zea mays [24]): 0 |
| CC(NC(=O)c1nc(C=Cc2ccccc2)ns1)c1cccs1 (racemic) [Example 29] | 0 | 0 | 0 | 0 | – | – | – | – | – | – | – | – | – | – | – | – | – | – | – | – | herbicide rating, ABUTH (Abutilon theophrasti [5]): 0; herbicide rating, AMARE (Amaranthus retroflexus [6]): 0; herbicide rating, CHEAL (Chenopodium album [7]): 4 (30-44%); herbicide rating, GALAP (Galium aparine [8]): 0; herbicide rating, HELAN (Helianthus annuus [9]): 0; herbicide rating, IPOHE (Ipomoea hederacea [10]): 0; herbicide rating, VERPE (Veronica persica [11]): 0; herbicide rating, ZEAMX (Zea mays [12]): 0; herbicide rating, ABUTH (Abutilon theophrasti [13]): 1 (1-5%); herbicide rating, ALOMY (Alopecurus myosuroides [14]): 2 (6-15%); herbicide rating, AMARE (Amaranthus retroflexus [15]): 1 (1-5%); herbicide rating, CHEAL (Chenopodium album [16]): 3 (16-29%); herbicide rating, GALAP (Galium aparine [17]): 1 (1-5%); herbicide rating, HELAN (Helianthus annuus [18]): 4 (30-44%); herbicide rating, HORVW (Hordeum vulgare [19]): 0; herbicide rating, IPOHE (Ipomoea hederacea [20]): 4 (30-44%); herbicide rating, SETVI (Setaria viridis [21]): 4 (30-44%); herbicide rating, TRZAW (Triticum aestivum [22]): 0; herbicide rating, VERPE (Veronica persica [23]): 0; herbicide rating, ZEAMX (Zea mays [24]): 0 |
| C[C@H](NC(=O)c1nc(-c2c(F)cccc2F)ns1)c1ccccc1 [Example 59, (S)-3-(2,6-Difluorophenyl)-[1,2,4]thiadiazole-5-carboxylic acid, 1-(phenylethyl)amide] | – | – | – | – | 0 | 0 | 3 (16-29%) | 3 (16-29%) | 3 (16-29%) | 0 | 6 (65-79%) | 0 | 8 (91-99%) | 6 (65-79%) | 6 (65-79%) | 3 (16-29%) | 3 (16-29%) | 3 (16-29%) | 8 (91-99%) | 0 | CHE AL rating (Chenopodium album [7]): 0; CHE AL rating (Chenopodium album [16]): 7 (80-90%) |
| COc1ccc(-c2nsc(C(=O)NC(C)c3ccsc3)n2)cc1 (racemic) [Example 61] | – | – | – | – | 0 | 0 | 0 | 0 | 0 | 0 | 0 | 0 | 0 | 0 | 2 (6-15%) | 0 | 0 | 0 | 0 | 0 | ALO MY rating (Alopecurus myosuroides [3]): 0; ABU TH rating (Abutilon theophrasti [5]): 0; IPO HE rating (Ipomoea hederacea [10]): 0; ABU TH rating (Abutilon theophrasti [13]): 0; ALO MY rating (Alopecurus myosuroides [14]): 1 (1-5%); IPO HE rating (Ipomoea hederacea [20]): 0 |
| O=C(NCc1cccs1)c1nc(-c2c(F)cccc2F)ns1 [Example 60] | – | – | – | – | 0 | 0 | 0 | 0 | 0 | 0 | 0 | 0 | 5 (45-64%) | 0 | 3 (16-29%) | 0 | 0 | 0 | 0 | 3 (16-29%) | CHE AL rating (Chenopodium album [7]): 0; CHE AL rating (Chenopodium album [16]): 0 |
| CC(NC(=O)c1nc(-c2c(F)cccc2F)ns1)c1cccs1 (racemic) [Example 58, (R/S)-3-(2,6-Difluorophenyl)-[1,2,4]thiadiazole-5-carboxylic acid, [1-(2-thienyl)ethyl]amide] | – | – | – | – | 0 | 0 | 0 | 0 | 0 | 0 | 0 | 0 | 7 (80-90%) | 6 (65-79%) | 9 (100% effect) | 3 (16-29%) | 2 (6-15%) | 2 (6-15%) | 4 (30-44%) | 0 | CHE AL rating (Chenopodium album [7]): 0; CHE AL rating (Chenopodium album [16]): 6 (65-79%) |
